molecular target: T1, purified catalytic domain of recombinant human TACE (rhTACEc) (Homo sapiens, UniProt P78536, N452Q/S266A); experiment: TACE kinetic assay, cleavage of internally quenched fluorescent peptide substrate SPDL-3; type: biochemical; settings: TACE inhibition, Table 1001; read-out: Ki Rating
T1 construct: rhTACEc, Residue 215 to 477 with two mutation (S266A and N4520) and a 6×His tail; 6xHis (C); made in house; host or cells: baculovirus/Hi5 insect cells
T1 sequence (P78536 215-477 S266A/N452Q limits assumed): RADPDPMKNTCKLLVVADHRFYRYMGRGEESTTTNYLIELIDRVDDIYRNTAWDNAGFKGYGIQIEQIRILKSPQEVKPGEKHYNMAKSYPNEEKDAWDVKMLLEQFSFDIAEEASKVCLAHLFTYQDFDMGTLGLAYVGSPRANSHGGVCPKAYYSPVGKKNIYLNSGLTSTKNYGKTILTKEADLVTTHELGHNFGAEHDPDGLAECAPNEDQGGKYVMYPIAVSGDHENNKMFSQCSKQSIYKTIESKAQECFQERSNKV

COc1ccc2c(c1)C(=O)N(C[C@@]1(C#Cc3cccc(Cl)c3)NC(=O)NC1=O)C2 [Compound 446] and COc1ccc2c(c1)C(=O)N(C[C@@]1(C#Cc3cccc(F)c3)NC(=O)NC1=O)C2 [Compound 445] cannot be ordered by Ki: < 5 nM for the first, < 5 nM for the second.

COc1ccc2c(c1)C(=O)N(C[C@@]1(C#Cc3csc(C(C)C)n3)NC(=O)NC1=O)C2 [Compound 465] and COc1ccc2c(c1)C(=O)N(C[C@@]1(C#Cc3csc(C)n3)NC(=O)NC1=O)C2 [Compound 467] cannot be ordered by Ki: < 5 nM for the first, < 5 nM for the second.

COc1ccc2c(c1)C(=O)N(C[C@@]1(C#Cc3cccc4ncccc34)NC(=O)NC1=O)C2 [Compound 441] and COc1ccc2c(c1)C(=O)N(C[C@@]1(C#Cc3cncc4ccccc34)NC(=O)NC1=O)C2 [Compound 425] cannot be ordered by Ki: < 5 nM for the first, < 5 nM for the second.

Compared with COc1ccc2c(c1)C(=O)N(C[C@]1(C#Cc3ccccc3C(C)C)NC(=O)NC1=O)C2 [Compound 964], COc1ccc2c(c1)C(=O)N(C[C@@]1(C#Cc3ccccc3OC(F)(F)F)NC(=O)NC1=O)C2 [Compound 515] is lower in Ki: 5 to 25 nM for the first, < 5 nM for the second.

COc1ccc2c(c1)C(=O)N(C[C@@]1(C#Cc3ccc(F)c(C)c3)NC(=O)NC1=O)C2 [Compound 432] and COc1ccc2c(c1)C(=O)N(C[C@@]1(C#Cc3ccc(C)c(F)c3)NC(=O)NC1=O)C2 [Compound 427] cannot be ordered by Ki: < 5 nM for the first, < 5 nM for the second.

COc1ccc2c(c1)C(=O)N(C[C@@]1(C#Cc3cccc4nc(N)sc34)NC(=O)NC1=O)C2 [Compound 503] and COc1ccc2c(c1)C(=O)N(C[C@@]1(C#Cc3ccc4sc(N)nc4c3)NC(=O)NC1=O)C2 [Compound 505] cannot be ordered by Ki: < 5 nM for the first, < 5 nM for the second.

COc1ccc2c(c1)C(=O)N(C[C@@]1(C#Cc3ncnc4[nH]cnc34)NC(=O)NC1=O)C2 [Compound 914] and COc1ccc2c(c1)C(=O)N(C[C@@]1(C#Cc3cnc(C)n3C)NC(=O)NC1=O)C2 [Compound 918] cannot be ordered by Ki: < 5 nM for the first, < 5 nM for the second.

COc1ccc2c(c1)C(=O)N(C[C@@]1(C#Cc3ccc(F)c(C(F)(F)F)c3)NC(=O)NC1=O)C2 [Compound 426] and COc1ccc2c(c1)C(=O)N(C[C@@]1(C#Cc3ccc(F)c(F)c3)NC(=O)NC1=O)C2 [Compound 483] cannot be ordered by Ki: < 5 nM for the first, < 5 nM for the second.

CCc1cc(C#C[C@]2(CN3Cc4ccc(OC)cc4C3=O)NC(=O)NC2=O)cc2sc(N)nc12 [Compound 919] and COc1ccc2c(c1)C(=O)N(C[C@@]1(C#Cc3ccc4sc(C)nc4c3)NC(=O)NC1=O)C2 [Compound 495] cannot be ordered by Ki: < 5 nM for the first, < 5 nM for the second.

COc1ccc2c(c1)C(=O)N(C[C@@]1(C#Cc3ccc(OC(F)(F)F)cc3)NC(=O)NC1=O)C2 [Compound 484] and COc1ccc2c(c1)C(=O)N(CC1(C#Cc3ccc(F)cc3)NC(=O)NC1=O)C2 (stereo not shown) [Compound 315] cannot be ordered by Ki: < 5 nM for the first, < 5 nM for the second.

COc1ccc2c(c1)C(=O)N(C[C@@]1(C#Cc3cncc4cc[nH]c34)NC(=O)NC1=O)C2 [Compound 953] and COc1ccc2c(c1)C(=O)N(C[C@@]1(C#Cc3cncc(C)c3)NC(=O)NC1=O)C2 [Compound 1005] cannot be ordered by Ki: < 5 nM for the first, < 5 nM for the second.

COc1ccc2c(c1)C(=O)N(C[C@@]1(C#Cc3cc(F)cc(C(F)(F)F)c3)NC(=O)NC1=O)C2 [Compound 440] and COc1ccc2c(c1)C(=O)N(C[C@@]1(C#Cc3cccc(C(F)(F)F)c3)NC(=O)NC1=O)C2 [Compound 459] cannot be ordered by Ki: < 5 nM for the first, < 5 nM for the second.

COc1ccc2c(c1)C(=O)N(C[C@@]1(C#Cc3ccc4nc(NC5CC5)sc4c3)NC(=O)NC1=O)C2 [Compound 504] and COc1ccc2c(c1)C(=O)N(C[C@@]1(C#Cc3ccc4ncsc4c3)NC(=O)NC1=O)C2 [Compound 903] cannot be ordered by Ki: < 5 nM for the first, < 5 nM for the second.

COc1ccc2c(c1)C(=O)N(C[C@@]1(C#Cc3ccc4ccn(C)c4n3)NC(=O)NC1=O)C2 [Compound 940] and COc1ccc2c(c1)C(=O)N(C[C@@]1(C#Cc3cn(C)c(C)n3)NC(=O)NC1=O)C2 [Compound 948] cannot be ordered by Ki: < 5 nM for the first, < 5 nM for the second.

COc1ccc2c(c1)C(=O)N(C[C@@]1(C#Cc3ccc(Cl)cc3)NC(=O)NC1=O)C2 [Compound 485] and COc1ccc2c(c1)C(=O)N(C[C@@]1(C#Cc3cccc(F)c3Cl)NC(=O)NC1=O)C2 [Compound 493] cannot be ordered by Ki: < 5 nM for the first, < 5 nM for the second.

COc1ccc2c(c1)C(=O)N(C[C@@]1(C#Cc3ccc4c(cnn4C)c3)NC(=O)NC1=O)C2 [Compound 444] and COc1ccc2c(c1)C(=O)N(C[C@@]1(C#Cc3ccc4sccc4c3)NC(=O)NC1=O)C2 [Compound 526] cannot be ordered by Ki: < 5 nM for the first, < 5 nM for the second.

COc1ccc2c(c1)C(=O)N(C[C@@]1(C#Cc3ccsc3)NC(=O)NC1=O)C2 [Compound 464] and COc1ccc2c(c1)C(=O)N(C[C@@]1(C#Cc3cncc(C#N)c3)NC(=O)NC1=O)C2 [Compound 481] cannot be ordered by Ki: < 5 nM for the first, < 5 nM for the second.

O=C1NC(=O)C(C#Cc2ccc(F)cc2F)(CN2Cc3ccc(OC(F)F)cc3C2=O)N1 (stereo not shown) [Compound 971] and COc1ccc2c(c1)C(=O)N(C[C@@]1(C#Cc3cc(Cl)cc(C#N)c3)NC(=O)NC1=O)C2 [Compound 462] cannot be ordered by Ki: < 5 nM for the first, < 5 nM for the second.

With COc1ccc2c(c1)C(=O)N(C[C@@]1(C#Cc3sc4ccc(Cl)cc4c3C)NC(=O)NC1=O)C2 [Compound 520] the Ki was < 5 nM.

same assay, conditions: TACE; class letters A-D; read-out: Ki Rating

COc1ccc2c(c1)C(=O)N(C[C@@]1(C#Cc3ccc4nc(C(F)(F)F)cn4c3)NC(=O)NC1=O)C2 [Compound 1521] and COc1ccc2c(c1)C(=O)N(C[C@@]1(C#Cc3ccc4nc(N)[nH]c4c3)NC(=O)NC1=O)C2 [Compound 1009] cannot be ordered by Ki: < 5 nM for the first, < 5 nM for the second.

COc1ccc2c(c1)C(=O)N(C[C@@]1(C#Cc3ccc4c(c3)C(=O)C(=O)N4)NC(=O)NC1=O)C2 [Compound 1557] and COc1ccc2c(c1)C(=O)N(C[C@@]1(C#Cc3ccc4c(c3)C(=O)NC4)NC(=O)NC1=O)C2 [Compound 1251] cannot be ordered by Ki: < 5 nM for the first, < 5 nM for the second.

COc1ccc2c(c1)C(=O)N(C[C@@]1(C#Cc3ccc(C(N)=O)nc3)NC(=O)NC1=O)C2 [Compound 1513] and COc1ccc2c(c1)C(=O)N(C[C@@]1(C#Cc3ccc(F)c(C(N)=O)c3)NC(=O)NC1=O)C2 [Compound 1151] cannot be ordered by Ki: < 5 nM for the first, < 5 nM for the second.

CCNc1nnc(-c2ccc(C#C[C@]3(CN4Cc5ccc(OC)cc5C4=O)NC(=O)NC3=O)cn2)o1 [Compound 1502] and COc1ccc2c(c1)C(=O)N(C[C@@]1(C#Cc3ccc(-c4cncnc4)nc3)NC(=O)NC1=O)C2 [Compound 1254] cannot be ordered by Ki: < 5 nM for the first, < 5 nM for the second.

CCS(=O)(=O)NC(=O)c1ccc(C#C[C@]2(CN3Cc4ccc(OC)cc4C3=O)NC(=O)NC2=O)cc1 [Compound 1551] and COc1ccc2c(c1)C(=O)N(C[C@@]1(C#Cc3ccc(C(=O)O)cc3)NC(=O)NC1=O)C2 [Compound 1138] cannot be ordered by Ki: < 5 nM for the first, < 5 nM for the second.

COc1ccc2c(c1)C(=O)N(C[C@@]1(C#Cc3cc(F)ccn3)NC(=O)NC1=O)C2 [Compound 1507] and COc1ccc2c(c1)C(=O)N(C[C@@]1(C#Cc3ccc(F)c(OC)c3)NC(=O)NC1=O)C2 [Compound 1149] cannot be ordered by Ki: < 5 nM for the first, < 5 nM for the second.

COc1ccc2c(c1)C(=O)N(C[C@@]1(C#Cc3ccc(C4(CN)NC(=O)NC4=O)cc3)NC(=O)NC1=O)C2 (stereo partly shown) [Compound 1562] and COc1ccc2c(c1)C(=O)N(C[C@@]1(C#Cc3ccc4[nH]c(=O)sc4c3)NC(=O)NC1=O)C2 [Compound 1016] cannot be ordered by Ki: < 5 nM for the first, < 5 nM for the second.

COc1ccc2c(c1)C(=O)N(C[C@@]1(C#Cc3ccc(CO)s3)NC(=O)NC1=O)C2 [Compound 1072] and COc1ccc2c(c1)C(=O)N(C[C@@]1(C#Cc3ccccc3C)NC(=O)NC1=O)C2 [Compound 1062] cannot be ordered by Ki: < 5 nM for the first, < 5 nM for the second.

COc1ccc2c(c1)C(=O)N(C[C@@]1(C#Cc3c4ccccc4nn3C)NC(=O)NC1=O)C2 [Compound 1508] and COc1ccc2c(c1)C(=O)N(C[C@@]1(C#Cc3ccccc3C#N)NC(=O)NC1=O)C2 [Compound 1154] cannot be ordered by Ki: < 5 nM for the first, < 5 nM for the second.

COc1ccc2c(c1)C(=O)N(C[C@@]1(C#Cc3cc(C)ccc3C#N)NC(=O)NC1=O)C2 [Compound 1219] and COc1ccc2c(c1)C(=O)N(C[C@@]1(C#Cc3cc(Cl)ccc3OC)NC(=O)NC1=O)C2 [Compound 1054] cannot be ordered by Ki: < 5 nM for the first, < 5 nM for the second.

COc1ccc2c(c1)C(=O)N(C[C@@]1(C#Cc3cnn4ccccc34)NC(=O)NC1=O)C2 [Compound 1510] and COc1ccc2c(c1)C(=O)N(C[C@@]1(C#Cc3cccc4cn[nH]c34)NC(=O)NC1=O)C2 [Compound 1015] cannot be ordered by Ki: < 5 nM for the first, < 5 nM for the second.

CCOc1cccc(C#C[C@]2(CN3Cc4ccc(OC)cc4C3=O)NC(=O)NC2=O)c1 [Compound 1046] and CO/N=C/c1cccc(C#C[C@]2(CN3Cc4ccc(OC)cc4C3=O)NC(=O)NC2=O)c1 [Compound 1085] cannot be ordered by Ki: < 5 nM for the first, < 5 nM for the second.

COc1ccc2c(c1)C(=O)N(C[C@@]1(C#Cc3ccc(C(N)=O)c([N+](=O)[O-])c3)NC(=O)NC1=O)C2 [Compound 1250] and COc1ccc2c(c1)C(=O)N(C[C@@]1(C#Cc3cccc(C(N)=O)c3)NC(=O)NC1=O)C2 [Compound 1134] cannot be ordered by Ki: < 5 nM for the first, < 5 nM for the second.

COc1ccc2c(c1)C(=O)N(C[C@@]1(C#Cc3ccc(C(=O)N4CCOCC4)cc3)NC(=O)NC1=O)C2 [Compound 1145] and CNC(=O)c1cc(C#C[C@]2(CN3Cc4ccc(OC)cc4C3=O)NC(=O)NC2=O)ccc1Cl [Compound 1144] cannot be ordered by Ki: < 5 nM for the first, < 5 nM for the second.

Compared with O=C1NC(=O)[C@](C#Cc2ccc(F)cc2F)(CN2Cc3ccc(F)cc3C2=O)N1 [Compound 1052], O=C1NC(=O)[C@@](C#Cc2ccc(F)cc2F)(CN2Cc3ccc(F)cc3C2=O)N1 [Compound 1042] is lower in Ki: 25 to 100 nM for the first, < 5 nM for the second.

COc1ccc2c(c1)C(=O)N(CC1(C#Cc3cccnc3)NC(=O)NC1=O)CC2 (stereo not shown) [Compound 1558] and COc1ccc2c(c1)CCN(CC1(C#Cc3ccc(Cl)s3)NC(=O)NC1=O)C2=O (stereo not shown) [Compound 1088] fall in the same range of Ki: 5 to 25 nM for the first, 5 to 25 nM for the second.

COc1ccc2c(c1)C(=O)N(C[C@@]1(C#Cc3ccc4oc(=O)[nH]c4c3)NC(=O)NC1=O)C2 [Compound 1560] was tested, and the Ki was < 5 nM.

same assay, conditions: rhTACEc 70 pM, 30 μM SPDL-3, 90 min pre-incubation at 25° C.; read-out: Ki (nM), TACE inhibitory activity

First: CCNc1nnc(-c2ccc(C#C[C@]3(CN4Cc5ccc(OC)cc5C4=O)NC(=O)NC3=O)cn2)o1 [Compound 1502]
Second: COc1ccc2c(c1)C(=O)N(C[C@@]1(C#Cc3ccc4nc(N)[nH]c4c3)NC(=O)NC1=O)C2 [Compound 1009]
The Ki of the first is 14-fold lower: 0.094 nM for the first, 1.33 nM for the second.

Work on COc1ccc2c(c1)C(=O)N(C[C@@]1(C#Cc3ccc(C4(C)NC(=O)NC4=O)cc3)NC(=O)NC1=O)C2 (stereo partly shown) [Compound 1256] yielded a Ki of 0.03 nM.
